Source: US20110124588A1, “SYNERGISTIC ACTIVE INGREDIENT COMBINATIONS” (Bayer Cropscience AG, priority 2008, published 2011)
Read-outs that look alike come from different tables or passages of the source.

Legend:
Phaedon cochleariae = Phaedon cochleariae larvae test (sprayed cabbage leaves); assay type: in vivo, mustard beetle (Phaedon cochleariae) larvae
Protocol: (§1) If the actual kill rate exceeds the calculated value, the kill of the combination is superadditive, i.e. a synergistic effect is present. In this case, the actually observed kill rate must exceed the value calculated using the above formula for the expected kill rate (E).
Solvents: 78 parts by weight of acetone • • 1.5 parts by weight of dimethylformamide Emulsifier: 0.5 part by weight of alkylaryl polyglycol ether
After the desired period of time, the kill in % is determined 100% means that all beetle larvae have been killed; 0% means that none of the beetle larvae have been killed. The kill rates determined are entered into Colby's formula.

Tetranychus urticae = Tetranychus urticae test (OP-resistant/spray treatment); assay type: in vivo, greenhouse red spider mite (Tetranychus urticae)
Description: (§2) The expected activity of a given combination of two active compounds can be calculated as follows, according to S. R. Colby, Weeds 15 (1967), 20-22:
(§3) X is the kill rate, expressed as a percentage of the untreated control, when employing active compound A at an application rate of m g/ha or in a concentration of m ppm, Y is the kill rate, expressed as a percentage of the untreated control, when employing active compound B at an application rate of n g/ha or in a concentration of n ppm and E is the kill rate, expressed as a percentage of the untreated control, when employing active compounds A and B at application rates of m and n g/ha or in a concentration of m and n ppm, then
as §1
(§4) solvents: 78 parts by weight of acetone • • 1.5 parts by weight of dimethylformamide emulsifier: 0.5 part by weight of alkylaryl polyglycol ether
(§5) To produce a suitable preparation of active compound, 1 part by weight of active compound is mixed with the stated amounts of solvents and emulsifier, and the concentrate is diluted with emulsifier-containing water to the desired concentration.
Discs of bean leaves (Phaseolus vulgaris) which are infested by all stages of the greenhouse red spider mite (Tetranychus urticae) are sprayed with an active compound preparation of the desired concentration.
After the desired period of time, the activity in % is determined 100% means that all spider mites have been killed; 0% means that none of the spider mites have been killed.

Spodoptera frugiperda = Spodoptera frugiperda larvae test (sprayed cabbage leaves); assay type: in vivo, army worm (Spodoptera frugiperda) larvae
Description: as §2, §3, §1, §4, §5
Cabbage leaves (Brassica oleracea) are treated by spraying with the active compound preparation of the desired concentration and are populated with larvae of the army worm (Spodoptera frugiperda) while the leaves are still moist.
After the desired period of time, the kill in % is determined 100% means that all caterpillars have been killed; 0% means that none of the caterpillars have been killed. The kill rates determined are entered into Colby's formula.

Myzus persicae = Myzus persicae test (spray treatment of infested cabbage leaves); assay type: in vivo, green peach aphid (Myzus persicae); settings: for pest or weed control at 0.8 g/ha / pest or weed control at 0.16 g/ha: Myzus persicae
Protocol: as §1, §4
After the desired period of time, the kill in % is determined 100% means that all aphids have been killed; 0% means that none of the aphids have been killed. The kill rates determined are entered into Colby's formula.

[1] = Phaedon cochleariae, 144 h, single active compound, 6 d, read-out: Kill in % after 6 d
[2] = Tetranychus urticae, 48 h, single active compound, 4 g/ha, after 2 d, read-out: Kill in % after 2 d
[3] = Phaedon cochleariae, 144 h, single active compound, 0.8 g/ha, 6 d, read-out: Kill in % after 6 d
[4] = Tetranychus urticae, 48 h, read-out: Kill in % after 2 d
[5] = single active compound, 100 g/ha, 6 d
[6] = single active compound, 4 g/ha, after 6 d
[7] = single active compound, 0.8 g/ha, 6 d
[8] = Phaedon cochleariae, 48 h, single active compound, 2 d, read-out: Kill in % after 2 d
[9] = 144 h, read-out: Kill in % after 6 d
[10] = Tetranychus urticae, 144 h, read-out: Kill in % after 6 d

CC(C)c1cc(Oc2ccccc2)cc(C(C)C)c1NC(=S)NC(C)(C)C [diafenthiuron]
pest or weed control at 20 g/ha (Phaedon cochleariae; [1]): 0%
pest or weed control at 4 g/ha (Tetranychus urticae; [2]): 0%

CCOCn1c(-c2ccc(Cl)cc2)c(C#N)c(Br)c1C(F)(F)F [chlorfenapyr]
pest or weed control at 0.8 g/ha (Phaedon cochleariae; [3]): 0%
pest or weed control at 4 g/ha (Phaedon cochleariae; [1]): 83%
pest or weed control at 4 g/ha (Spodoptera frugiperda; Spodoptera frugiperda, 48 h, read-out: Kill in % after 2 d): 67%
pest or weed control at 4 g/ha (Tetranychus urticae; [4]): 50%

CSC(=O)O/C(=C(/C#N)c1ccc(Cl)cc1)c1ccccc1C(F)(F)F [IKA 2002]
Kill in % after 6 d (Phaedon cochleariae; [5]): 0%
Kill in % after 6 d (Spodoptera frugiperda; [5]): 0%
Kill in % after 6 d (Tetranychus urticae; [6]): 70%

spinosad
Kill in % after 6 d (Spodoptera frugiperda; [7]): 50%
Kill in % after 6 d (Tetranychus urticae; [6]): 20%

spinetoram
Kill in % after 6 d (Myzus persicae; [7]): 0%
Kill in % after 6 d (Phaedon cochleariae; [7]): 50%
Kill in % after 2 d (Spodoptera frugiperda; single active compound, 0.16 g/ha, 2 d): 50%
Kill in % after 2 d (Tetranychus urticae; single active compound, 4 g/ha, after 2 d): 20%

CN/C(=N\[N+](=O)[O-])NCC1CCOC1 (centres unmarked) [dinotefuran]
pest or weed control at 0.8 g/ha (Myzus persicae; 24 h, read-out: Kill in % after 1 d): 0%
pest or weed control at 0.8 g/ha (Phaedon cochleariae; Phaedon cochleariae, 144 h, read-out: Kill in % after 6 d): 0%
pest or weed control at 20 g/ha (Tetranychus urticae; [4]): 0%

CC(c1ccc(Cl)nc1)S(C)(=O)=NC#N (centres unmarked) [compound (I-5)]
pest or weed control at 0.16 g/ha (Myzus persicae; 24 h, single active compound, 0.16 g/ha, 1 d, read-out: Kill in % after 1 d): 0%
pest or weed control at 0.8 g/ha (Myzus persicae; 24 h, single active compound, 0.8 g/ha, 1 d, read-out: Kill in % after 1 d): 0%
pest or weed control at 0.16 g/ha (Myzus persicae; 144 h, single active compound, 0.16 g/ha, 6 d, read-out: Kill in % after 6 d): 0%
pest or weed control at 0.8 g/ha (Myzus persicae; 144 h, single active compound, 0.8 g/ha, 6 d, read-out: Kill in % after 6 d): 20%
pest or weed control at 4 g/ha (Phaedon cochleariae; [8]): 0%
pest or weed control at 20 g/ha (Phaedon cochleariae; [8]): 0%
pest or weed control at 0.8 g/ha (Phaedon cochleariae; [3]): 0%
pest or weed control at 4 g/ha (Phaedon cochleariae; [1]): 0%
pest or weed control at 20 g/ha (Phaedon cochleariae; [1]): 0%
pest or weed control at 0.16 g/ha (Spodoptera frugiperda; Spodoptera frugiperda, 48 h, single active compound, 0.16 g/ha, 2 d, read-out: Kill in % after 2 d): 0%
pest or weed control at 0.8 g/ha (Spodoptera frugiperda; Spodoptera frugiperda, 48 h, single active compound, 0.8 g/ha, 2 d, read-out: Kill in % after 2 d): 0%
pest or weed control at 20 g/ha (Spodoptera frugiperda; Spodoptera frugiperda, 48 h, single active compound, 2 d, read-out: Kill in % after 2 d): 0%
pest or weed control at 100 g/ha (Spodoptera frugiperda; Spodoptera frugiperda, 48 h, single active compound, 100 g/ha, 2 d, read-out: Kill in % after 2 d): 0%
pest or weed control at 0.8 g/ha (Spodoptera frugiperda; Spodoptera frugiperda, 144 h, single active compound, 0.8 g/ha, 6 d, read-out: Kill in % after 6 d): 0%
pest or weed control at 4 g/ha (Spodoptera frugiperda; Spodoptera frugiperda, 144 h, single active compound, 4 g/ha, 6 d, read-out: Kill in % after 6 d): 0%
pest or weed control at 20 g/ha (Spodoptera frugiperda; Spodoptera frugiperda, 144 h, single active compound, 6 d, read-out: Kill in % after 6 d): 0%
pest or weed control at 100 g/ha (Spodoptera frugiperda; Spodoptera frugiperda, 144 h, single active compound, 100 g/ha, 6 d, read-out: Kill in % after 6 d): 0%
pest or weed control at 0.8 g/ha (Tetranychus urticae; Tetranychus urticae, 48 h, single active compound, 0.8 g/ha, after 2 d, read-out: Kill in % after 2 d): 0%
pest or weed control at 4 g/ha (Tetranychus urticae; [2]): 0%
pest or weed control at 4 g/ha (Tetranychus urticae; Tetranychus urticae, 144 h, single active compound, 4 g/ha, after 6 d, read-out: Kill in % after 6 d): 0%
pest or weed control at 20 g/ha (Tetranychus urticae; Tetranychus urticae, 144 h, single active compound, 20 g/ha, after 6 d, read-out: Kill in % after 6 d): 0%
pest or weed control at 100 g/ha (Tetranychus urticae; Tetranychus urticae, 144 h, single active compound, 100 g/ha, after 6 d, read-out: Kill in % after 6 d): 0%

Cc1nn(C)c(/C(OC(=O)C(C)(C)C)=C(\C#N)c2ccc(C(C)(C)C)cc2)c1C [cyenopyrafen, (1E)-2-cyano-2-[4-(1,1-dimethylethyl)phenyl]-1-(1,3,4-trimethyl-1H-pyrazol-5-yl)ethenyl 2,2-dimethylpropanoate]
pest or weed control at 100 g/ha (Phaedon cochleariae; Phaedon cochleariae, 144 h, single active compound, 100 g/ha, 6 d, read-out: Kill in % after 6 d): 0%
pest or weed control at 0.8 g/ha (Tetranychus urticae; [4]): 70%

Cc1nn(C)c(Oc2ccccc2)c1C=NOCc1ccc(C(=O)OC(C)(C)C)cc1 [fenpyroximate]
pest or weed control at 0.8 g/ha (Myzus persicae; [9]): 0%
pest or weed control at 20 g/ha (Phaedon cochleariae; [8]): 0%
pest or weed control at 100 g/ha (Spodoptera frugiperda; Spodoptera frugiperda, 144 h, read-out: Kill in % after 6 d): 50%
pest or weed control at 4 g/ha (Tetranychus urticae; [10]): 60%

CCc1nn(C)c(C(=O)NCc2ccc(C(C)(C)C)cc2)c1Cl [tebufenpyrad]
pest or weed control at 0.16 g/ha (Myzus persicae; [9]): 0%
pest or weed control at 0.8 g/ha (Myzus persicae; [9]): 0%
pest or weed control at 20 g/ha (Phaedon cochleariae; [1]): 0%
pest or weed control at 4 g/ha (Tetranychus urticae; [10]): 40%
